Test results taken from patent US20250152781A1, “TISSUE ENGINEERING AND DRUG DELIVERY DEVICE” (Ohio State Innovation Foundation, priority 2022, published 2025).

Assay: Diffusive release of Rose Bengal through sintered electrospun polymer capsule wall in PBS
Assay type: physicochemical
Text: To create a generic advantage that dramatically enhances the long-term drug delivery properties of electrospun scaffolds beyond those currently available via electrospinning alone. A little-known aspect of materials processing is that the shrinkage of high surface area polymers (e.g., in electrospun or electrosprayed form) can be used to provide higher density polymers. In the context of electrospun tissue engineering scaffolds, this phenomenon can be used to create relatively dense material from polymer compositions that would be difficult—if not impossible—to create via extrusion. The relatively dense material then creates a solid barrier through which diffusion of the internally-held drug can occur. The simplest version of this process involves creating a hollow tube via electrospinning (FIG. 1), sintering it to full or nearly-full density (thus eliminating open porosity, see FIG. 2), and then inserting the drug of interest contained with the appropriate solvent. Once this is complete, the ends of the tube can be heat-sealed (FIG. 3) using commonly available, purpose-built equipment designed and manufactured for the purpose of heat-sealing plastics of nearly any chemical composition. […]

drug release rate of Rose Bengal through 95% PCL-5% PET wall (95% PCL-5% polyethylene terephthalate wall formed by electrospinning then sintering to full density, after 30+ days of release (FIG. 5)): above 10 μg/day | release rate of Rose Bengal through PCL capsule wall (PCL wall formed by electrospinning then sintering to full density, after 120 days of exposure to 37° C. phosphate-buffered saline (FIG. 4)): 9 to 10 µg/day
Structure (SMILES): O=C([O-])c1c(Cl)c(Cl)c(Cl)c(Cl)c1-c1c2cc(I)c(=O)c(I)c-2oc2c(I)c([O-])c(I)cc12.[Na+].[Na+] [Rose Bengal]
